Tests used:
[1] = tested on: ganglioside GM3, mouse B16 melanoma cells; assay: Synthesized amount of ganglioside GM3 (HPTLC densitometry); assay type: cell-based; conditions: relative value, control regarded as 100, test compound 25 μM, 24 hours
Experimental: (§1) A liquid where the cells of mouse B16 melanoma were suspended was prepared with Dulbecco modified Eagle's medium containing 10% bovine fetal serum, inoculated into a culture flask (175 cm^2) in an amount of 0.8×10^7 cells/20 ml, and cultured in 5% CO2 incubator at 37° C. The treatment with a test compound (25 μM) was started through the exchange of three fourths of the medium 24 hours after the culture was started. Twenty-four hours after the treatment with the test compound was started, the culture mixture was treated with PBS containing 0.02% EDTA and PBS containing 0.25% trypsin successively to recover the cells.
Then, a mixed solvent of chloroform:methanol=2:1 (4 ml) was added to the cell pellet and, after the subjection to an ultrasonication for 30 minutes, the cell pellet solution was allowed to stand at room temperature for a night and the supernatant was recovered. Furthermore, a mixed solvent of chloroform:methanol=1:1 (4 ml) was added to the residual pellet after the recovery of the supernatant, and a similar operation was carried out. The resulting supernatant was combined with the first supernatant and the whole was evaporated to dryness under a nitrogen stream. To the total lipid fraction was added a 0.1 N methanolic sodium hydroxide solution (2.0 ml) and the mixture was allowed to stand at 40° C. for 2 hours. Thereafter, 1 N hydrochloric acid (0.2 ml) was added thereto and the mixture was allowed to stand for 1.5 hours.
Then, the mixture was washed with n-hexane (2 ml×2) and, after the lower layer thus washed was evaporated to dryness under a nitrogen stream, the residue was desalinated by gel filtration chromatography (Sephadex LH-20 (manufactured by Amersham Pharmacia Biotech), diameter of 10 mm, height of 120 mm) using chloroform:methanol=2:1 as the eluting solvent. […] After orcinol-sulfuric acid reagent had been sprayed on the plate, it was heated at 110° C. for 5 minutes and colored spot of ganglioside GM3 was quantitatively determined by means of densitometer (a measuring wavelength of 505 nm). […]

[2] = tested on: enzyme for ganglioside GM3 synthesis, mouse B16 melanoma cell; assay: Activity of enzyme for ganglioside GM3 synthesis (14C-Gal incorporated in total lipid fraction); assay type: cell-based; conditions: relative value, control regarded as 100; test compound 24 μM, 24 hours; 14C-Gal incorporation
Experimental: The gangliosides produced by mouse B16 melanoma cell are almost composed of ganglioside GM3. Therefore, the activity of the enzyme for ganglioside GM3 synthesis can be determined conveniently by measuring the amount of ^14C-Gal incorporated in a total lipid-extracted fraction through a liquid layer partition method.
as §1, with “a 12-well plate” for “a culture flask (175 cm^2)”, “of 2.0×10^5 cells/ml/well,” for “of 0.8×10^7 cells/20 ml,”, “compound (24” for “compound (25”, “μM) and the addition of ^14C-Gal (22.2 kBq/11.7 nmol/6 μl/well) were” for “μM) was”, “of total amount” for “of three fourths”
Then, a mixed solvent of chloroform:methanol=2:1 (3 ml) was added to the cell pellet and, after the subjection to an ultrasonication for 30 minutes, the supernatant was recovered. Furthermore, a mixed solvent of chloroform:methanol=1:1 (3 ml) was added to the residual pellet after the recovery of the supernatant, and a similar operation was carried out. The resulting supernatant was combined with the first supernatant and the whole was evaporated to dryness under a nitrogen stream. A desalinated water (1.0 ml) was added to the total lipid-extracted fraction. After having been subjected to an ultrasonication for 1 minute, the mixture was transferred into a dialysis tube and dialyzed against water for 2 days. The sample after the dialysis was transferred into a vial for liquid scintillation counter and, after the addition of scintillator, the activity of incorporating ^14C-Gal was measured on scintillation counter.
The values of activity of the compounds of the present invention are shown as relative values obtained by calculation on the basis that the value of a control (a group where no test compound was added) is regarded as 100 in Table 3 below.

[3] = tested on: cultured neurocytes of rat fetal cerebral cortex; assay: Activity of accelerating synapse formation (intracellular calcium ion level, fura-2); assay type: cell-based; conditions: relative value, L-PDMP regarded as 100; compound 20 μM; assay on 10th day of culture
Experimental: The activity of accelerating synapse formation was determined by measuring change of an intracellular calcium ion level resulted from the synchronized spontaneous ignition of neurocytes which is considered to show synapse activities by means of an intracellular calcium ion multipoint observation system using a calcium ion fluorescence indicator, fura-2.
Concretely, rat fetuses at the 18th day of pregnancy were taken out from Wistar rats (available from Japan SLC), and cerebral cortices of the fetuses were taken out and cut into small pieces. After having been treated with papain (manufactured by Worthington Biochemical) at 37° C. for 30 minutes, the pieces were suspended into a Dulbecco modified Eagle's medium containing 5% bovine neonatal serum and 5% equine serum and the cortices were dissociated into single cells with Cell Striner (70 μm, Falcon). Then, the cells were inoculated into a flexiperm plate coated with 0.5% polyethyleneimine (1.0×10^6 cells/500 μl/well), and was cultured in 7% CO2 incubator at 37° C. The medium was exchanged on 2nd, 5th, and 8th days after the culture had been started. The activity of the compound of the present invention was measured using the primary culture. The compound was added at the time when the medium was exchanged and the concentration of the compound was maintained to be 20 μM. Assay was carried out on 10th day after the culture had been started.
(2) Measurement of Activity of Accelerating Synapse Formation
Concretely, after the medium of each well where cells were cultured was substituted with basic salt solution (BSS), 3 μl of a DMSO solution (1 mg/ml) of a calcium ion fluorescence indicator fura-2 was added, and the whole was kept at 37° C. for 1 hour.

neurite = conditions: literature; cited from earlier work
synaptic function = conditions: Biochem. Biophys. Res. Commun. 222: 494-498 (1996); cited from earlier work
[4] = tested on: GSLs which are produced starting with glucosylceramide; conditions: J. Lipid Res. 28: 565-571 (1987); cited from earlier work
[5] = molecular target: T1, enzyme for glucosylceramide biosynthesis (Homo sapiens, UniProt Q16739); conditions: J. Lipid Res. 28: 565-571 (1987); cited from earlier work
T1 sequence (Q16739 1-394): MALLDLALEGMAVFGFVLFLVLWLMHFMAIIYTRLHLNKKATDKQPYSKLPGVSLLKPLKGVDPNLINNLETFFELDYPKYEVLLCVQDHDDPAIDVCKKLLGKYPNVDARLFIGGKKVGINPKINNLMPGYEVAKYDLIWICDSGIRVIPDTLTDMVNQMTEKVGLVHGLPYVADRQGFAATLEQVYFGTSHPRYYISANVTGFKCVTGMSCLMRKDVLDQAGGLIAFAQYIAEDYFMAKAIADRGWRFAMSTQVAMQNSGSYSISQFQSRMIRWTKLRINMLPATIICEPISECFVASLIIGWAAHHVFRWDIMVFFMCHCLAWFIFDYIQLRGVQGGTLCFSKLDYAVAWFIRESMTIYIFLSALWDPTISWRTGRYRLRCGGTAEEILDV

In the case of `O=C(O)CCCCCCCCC(=O)N[C@@H](CN1CCOCC1)[C@@H](O)c1ccccc1` [Example 25, (1S,2S)-2-(9-carboxynonanoyl)amino-3-morpholino-1-phenyl-1-propanol], the “Glycolipid content (Test Example 3)” value [1] is reported as 114.5 and the “Activity of accelerating glycolipid biosynthesis (Test Example 2)” value [2] is reported as 89.2.
With `CCCCOC(=O)CCC(=O)N[C@@H](CN1CCOCC1)[C@@H](O)c1ccccc1` [Example 5, (1S,2S)-2-(n-butoxy)butanedioylamino-3-morpholino-1-phenyl-1-propanol] the “Activity of synapse formation” value [3] was 92.5, the “Glycolipid content (Test Example 3)” value [1] was 131.2 and the “Activity of accelerating glycolipid biosynthesis (Test Example 2)” value [2] was 122.3.
For `CCCCCCCCCC(=O)N[C@H](CN1CCOCC1)[C@H](O)c1ccccc1` [D-threo-PDMP, D-threo-1-phenyl-2-decanoylamino-3-morpholino-1-propanol], the “effect on neurite extension” value (neurite) is listed as “suppresses the extension of neurite”, the “effect on synaptic function” value (synaptic function) is listed as “suppresses synaptic function” and the “intracellular content of GSLs” value [4] is listed as “remarkably reduces intracellular content of all GSLs”. For the same compound, the “effect on enzyme for glucosylceramide biosynthesis” value [5] was “specifically inhibits”.
